Literature values as cited in patent US20260102363A1, “TREATMENT METHOD AND ANTIFUNGAL COMPOSITION” (MOBERG PHARMA AB, priority 2020, published 2026).
Structures can show the parent of a compound that is named as a salt. Where two headings read alike, the source gives them in different places.

What was measured:
[1] = Study 1 of the prescribing information
[2] = Study 2 of the prescribing information
[3] = single reported study, hydrochloride

| Structure (SMILES) | Complete Cure (%) (DSO; [1]) | Mycological Cure (%) (DSO; [1]) | Complete Cure (%) (DSO; [2]) | Mycological Cure (%) (DSO; [2]) | Complete Cure (%) (DSO; single reported study) | Mycological Cure (%) (DSO; single reported study) | also measured |
| --- | --- | --- | --- | --- | --- | --- | --- |
| C=C1CCN([C@H](C)[C@](O)(Cn2cncn2)c2ccc(F)cc2F)CC1 [Efinaconazole (JUBLIA ®), efinaconazole] | 15.2 | 53.4 | 17.8 | 55.2 |  |  |  |
| OB1OCc2cc(F)ccc21 [Tavaborole (KERYDIN ®), tavaborole] | 6.5 | 31 | 9.1 | 35.9 |  |  |  |
| N#C/C(=C1/SC[C@@H](c2ccc(Cl)cc2Cl)S1)n1ccnc1 [Luliconazole] |  |  |  |  | 14.9 | 45.4 |  |
| CN(C/C=C/C#CC(C)(C)C)Cc1cccc2ccccc12 [Terbinafine (P3058), Terbinafine] |  |  |  |  | 5.7 | 20.4 |  |
| CN(C/C=C/C#CC(C)(C)C)Cc1cccc2ccccc12 [Terbinafine (oral) (LAMISIL ®), terbinafine hydrochloride] |  |  |  |  |  |  | Complete Cure (%) (DSO; [3]): 38%; Mycological Cure (%) (DSO; [3]): 70%; mycological cure rate (onychomycosis; after 12 weeks): ~15%; mycological cure rate (onychomycosis; at 24 weeks): ~40%; mycological cure rate (onychomycosis; at week 48/52): ~70% |
| Cc1cc(C2CCCCC2)n(O)c(=O)c1 [Ciclopirox (Penlac ®), ciclopirox] | 5.5 | 29 | 8.5 | 36 |  |  |  |
